Test results: patent publication US9910050B2, “Mutant smoothened and methods of using the same” (Curis, Inc., priority 2009, dated 2018)
“Also recorded” adds a separate entry of the source. One block for each compound: values may come before it.

Tests used:
[1] = target: T1, SMO-D473H (Homo sapiens, UniProt Q99835, D473H); test: Gli-luciferase reporter assay in C3H10T½ cells transfected with SMO-D473H; type: cell-based; details: for activity against SMO-D473H, inhibition of Gli-luciferase activity: screen at 1 μM compound
T1 construct: expressed in transfected cells; host or cells: C3H10T½ cells (reporter assay)
Experimental: For the PTCH1 inhibition experiments, cells were transfected with an additional 200 ng of DNA containing varying ratios of PTCH1 to eGFP expression constructs. For the NF-κB and SV40 reporter assays, Gli-BS was replaced with either pGL4.32 or pGL3-Promoter. Six hours later, cells were collected by trypsin treatment and each well was redistributed over four wells of a 12-well plate. The FBS content of the culture medium was reduced to 0.5% the following morning to induce formation of primary cilia, and small molecule Hh inhibitors were added at indicated concentrations. […] Values were divided by Renilla luciferase activities to normalize for transfection efficiency and are shown as the mean of three separate experiments±1 standard deviation.

[2] = Mouse pharmacokinetic study; type: in vivo; details: for pharmacokinetic properties in mice: oral
Experimental: Mouse pharmacokinetic studies. […] Briefly, 24 female CD-1 mice weighing 25 to 33 g at study initiation were given a single oral 100 mg kg−1 dose of either compound 4 or 5 as a suspension in 0.5% methylcellulose with 0.2% Tween-80 (MCT). Blood samples (n=3 mice per time point) were collected in tubes containing EDTA as an an anticoagulant by terminal cardiac puncture under isoflurane at the following time points: 5, 15 and 30 min; and 1, 3, 6, 9 and 24 h post-dose. Blood samples were centrifuged to collect plasma, which was stored at −80° C. until drug concentrations were quantified by LC/MS/MS.

[3] = system: Gli1 mRNA in SG274 tumors; test: Gli1 mRNA levels by qRT-PCR in SG274 tumors; type: in vivo, mouse; details: compound 5 100 mg kg−1 once daily, collected 6 hours after last treatment
[4] = target: T2, endogenous SMO (Mus musculus, UniProt P56726); test: Inhibition of endogenous SMO following stimulation by Hh ligand; type: cell-based; details: data not shown
T2 construct: endogenous in cells

[5] = system: Smo localization to the primary cilium in S12 cells; test: Smo immunostaining, ciliary localization in S12 cells; details: 16 h; for effect on Smo localization compared with GDC-0449: absence or presence of Shh, 1 μM; for ciliary accumulation of Smo in the absence of Hh stimulation: no Shh
[6] = system: SG274 allografts (Smo-D477G); test: Tumor growth of subcutaneous SG274 MB allografts; type: in vivo, mouse; details: compound 5 100 mg kg−1 once daily, oral
Text: (§1) Drug treatment of animals with MB allografts. Tumor-hearing animals were generated via serial subcutaneous propagation of murine Ptch+/−; p53−/− MB tumor lines (Wetmore C. et al. (2001) Cancer Res. 61:513-516). Subcutaneous tumors 1500-2000 mm3 were excised from donor mice under aseptic conditions, minced in High Glucose DMEM by repeated slicing and chopping with two #10 scalpels and passed through a cell dissociation sieve (Sigma, CD1-1KT). The resulting single cell suspension was washed twice in High Glucose DMEM and filtered through a 70 μm nylon cell strainer (BD Falcon) before counting in a Vi-CELL cell viability analyzer (Beckman Coulter). Approximately 2.5-4×10^6 live cells in a 100 μl volume were injected subcutaneously into the right lateral thorax of 7 to 10-week-old female CD-1 nude mice (CRL). Tumor dimensions were measured with Ultra Cal1 IV calipers (Fred V. Fowler Company Inc., Newton, Mass.) and tumor volume was calculated using the formula v=0.5×a×b2, where a and b are the […] perpendicular tumor diameters, respectively. When tumors reached 125-350 mm^3 in volume, animals were separated into treatment groups with similarly sized tumors and drug administration was initiated. […]

[7] = target: T3, SMO-WT (Homo sapiens, UniProt Q99835); test: Gli-luciferase reporter assay in C3H10T½ cells transfected with SMO-WT; type: cell-based
T3 construct: expressed in transfected cells; host or cells: C3H10T½ cells (reporter assay)

[8] = system: pAKT and pS6 (PI3K pathway); test: Immunoblot of activated AKT and S6 in MB allograft tumors; type: in vivo, mouse; details: 6-hour treatment with GDC-0941
Experimental: Immunoblotting. Frozen tumor samples were lysed in M-PER Mammalian Protein Extraction Reagent (Pierce) containing protease and phosphatase inhibitors. Lysates were separated on 4-12% Bis-Tris gels and proteins were transferred onto PVDF membranes with an iBlot (Invitrogen). Blots were blocked and incubated overnight at 4° C. with 5% milk containing one of the following primary antibodies; anti-cyclin D1 (Cell Signaling, #2922), anti-phospho(Ser473)-AKT (Cell Signaling, #4060), anti-total AKT (Cell Signaling #9272), anti-Gli2 (Cho A. et al. (2008) Dev. Biol. 321:27-39), or anti-actin (Santa Cruz Biotechnology, sc-47778), followed by a 1 h incubation at RT with appropriate HRP-conjugated secondary antibodies. Antigen-antibody interactions were visualized with SuperSignal West Dura Extended Duration Substrate (Pierce).

[9] = system: control and GDC-0449-resistant MB allografts; test: Tumor growth of control and GDC-0449-resistant MB allografts, PI3K inhibitor study; type: in vivo, mouse; details: GDC-0941 150 mg kg−1 once daily, oral, SG102, SG152, SG274
Text: as §1

[10] = system: human hepatocytes; test: Metabolism by human hepatocytes; type: in vitro ADME; details: unpublished observation
[11] = system: Smo localization to the primary cilium; details: literature reports; cited from earlier work
[12] = 5 μM for cyclopamine, 1 μM for the others

T1 sequence (Q99835 28-787 D473H): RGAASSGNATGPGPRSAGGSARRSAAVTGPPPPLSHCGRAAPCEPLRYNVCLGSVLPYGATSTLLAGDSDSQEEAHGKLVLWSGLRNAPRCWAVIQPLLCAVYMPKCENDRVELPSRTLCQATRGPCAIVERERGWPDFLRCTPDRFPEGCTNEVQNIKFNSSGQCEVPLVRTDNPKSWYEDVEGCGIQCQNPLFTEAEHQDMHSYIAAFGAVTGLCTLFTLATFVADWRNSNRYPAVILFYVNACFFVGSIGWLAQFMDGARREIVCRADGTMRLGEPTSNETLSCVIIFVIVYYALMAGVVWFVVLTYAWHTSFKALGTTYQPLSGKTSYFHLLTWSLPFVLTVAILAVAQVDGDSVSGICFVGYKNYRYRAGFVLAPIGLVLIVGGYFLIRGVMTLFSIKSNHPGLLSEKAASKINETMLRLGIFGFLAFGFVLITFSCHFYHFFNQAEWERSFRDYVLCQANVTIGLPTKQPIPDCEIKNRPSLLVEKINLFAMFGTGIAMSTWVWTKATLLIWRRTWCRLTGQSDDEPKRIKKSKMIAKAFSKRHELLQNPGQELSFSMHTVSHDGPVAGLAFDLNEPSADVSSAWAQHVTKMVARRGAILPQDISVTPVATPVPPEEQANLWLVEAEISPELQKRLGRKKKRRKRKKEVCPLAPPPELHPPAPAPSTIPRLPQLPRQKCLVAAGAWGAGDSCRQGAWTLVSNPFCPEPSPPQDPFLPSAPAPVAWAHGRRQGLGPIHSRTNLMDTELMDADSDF
T3 sequence (Q99835 28-787): as the sequence (Q99835 28-787 D473H) above, with H446D counted along it
T2 sequence (P56726 33-793): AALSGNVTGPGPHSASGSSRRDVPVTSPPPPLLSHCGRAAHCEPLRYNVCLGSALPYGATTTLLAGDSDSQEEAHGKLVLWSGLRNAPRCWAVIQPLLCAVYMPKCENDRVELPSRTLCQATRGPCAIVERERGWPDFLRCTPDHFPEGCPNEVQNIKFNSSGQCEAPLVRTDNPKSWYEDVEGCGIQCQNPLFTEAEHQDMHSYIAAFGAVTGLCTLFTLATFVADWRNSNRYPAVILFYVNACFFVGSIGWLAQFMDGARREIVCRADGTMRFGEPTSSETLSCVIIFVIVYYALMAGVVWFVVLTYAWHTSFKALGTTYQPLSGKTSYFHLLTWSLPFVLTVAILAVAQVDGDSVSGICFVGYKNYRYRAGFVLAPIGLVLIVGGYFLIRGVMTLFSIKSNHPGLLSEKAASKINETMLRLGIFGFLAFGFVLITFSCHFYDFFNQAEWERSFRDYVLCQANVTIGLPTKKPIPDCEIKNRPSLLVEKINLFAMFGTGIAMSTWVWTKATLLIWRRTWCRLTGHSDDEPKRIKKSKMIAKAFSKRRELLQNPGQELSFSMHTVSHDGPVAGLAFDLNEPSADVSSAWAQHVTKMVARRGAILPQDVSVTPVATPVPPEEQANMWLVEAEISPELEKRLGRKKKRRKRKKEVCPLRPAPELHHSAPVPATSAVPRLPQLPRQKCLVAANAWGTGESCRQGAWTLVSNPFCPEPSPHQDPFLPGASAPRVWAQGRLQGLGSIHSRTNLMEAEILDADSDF

activity against SMO-D473H, inhibition of Gli-luciferase activity [1]: measurable activity
Compound: CS(=O)(=O)c1ccc(C(=O)Nc2ccc(Cl)c(NC(=O)c3ccccc3)c2)c(Cl)c1 [Compound 3]

activity against SMO-D473H, inhibition of Gli-luciferase activity [1]: improved potencies
Compound: O=C(Nc1ccc(Cl)c(NC(=O)c2cccc(Cl)c2)c1)c1ccc(N2CCC(O)CC2)nc1 [Compound 4]
pharmacokinetic properties in mice [2]: cleared much more rapidly from the blood stream than compound 5

less compound sufficient to inhibit endogenous SMO than in SMO overexpression assay [4]: approximately 10 fold | IC50 ([1]; SMO-D473H transfected C3H10T½ cells, read-out: IC50, inhibition of Gli-luciferase reporter activity): 700 nM | inhibition of SMO-D473H, Gli-luciferase reporter dose response ([1]; dose response): can inhibit the drug-resistant mutant | activity against SMO-D473H, inhibition of Gli-luciferase activity [1]: improved potencies | half-life ([2]; female, CD-1, mouse, mice, single oral 100 mg kg−1 dose, plasma, read-out: terminal half-life (t1/2) (converted)): ~22 h | pharmacokinetic properties in mice [2]: good pharmacokinetic properties in mice | activity against wild type SMO, Gli-luciferase reporter ([7]; SMO-WT overexpression in C3H10T½ cells): less potent against SMO-WT than GDC-0449 | IC50 ([7]; SMO-WT transfected C3H10T½ cells, read-out: IC50, inhibition of GLI-luciferase reporter activity): 300 nM
Compound: C[C@@H]1CN(c2ccc(C(=O)Nc3ccc(Cl)c(NC(=O)c4cccc(Cl)c4)c3)cn2)C[C@H](C)N1 [Compound 5]
Gli1 mRNA levels in SG274 tumors [3]: downregulation in Gli1 mRNA levels | effect on Smo localization compared with GDC-0449 [5]: very similar effects on Smo localization | tumor growth of SG274 allografts [6]: not only stopped growing but even started to shrink

Compound: CS(=O)(=O)N1CCN(Cc2cc3nc(-c4cccc5[nH]ncc45)nc(N4CCOCC4)c3s2)CC1 [GDC-0941]
pAKT and pS6 levels in tumors [8]: decreased pAKT and pS6 levels | tumor growth of control and resistant MB allograft models [9]: greatly reduced tumor growth

metabolism by human hepatocytes [10]: rapidly metabolized by human hepatocytes
Compound: CCOc1cc(C(=O)Nc2ccc(Cl)c(-c3nc4ccccc4[nH]3)c2)cc(OCC)c1OCC [HhAntag]
effect on Smo localization compared with GDC-0449 [5]: very similar effects on Smo localization | activity against SMO-D473H, inhibition of Gli-luciferase activity [1]: essentially equipment against all SMO alleles

Compound: CNC1CCC(N(Cc2cccc(-c3ccncc3)c2)C(=O)c2sc3ccccc3c2Cl)CC1 (stereo not drawn) [SAG]
ciliary accumulation of Smo in the absence of Hh stimulation [5, 12]: robust translocation of Smo to the primary odium

Compound: Cc1nn(-c2ccccc2)c(C)c1/C=N/N1CCN(Cc2ccccc2)CC1 [SANT-1]
Shh and agonist-induced translocation of Smo to the cilium [11]: prevented Shh and agonist-induced translocation of Smo | Hh-induced Smo translocation to the primary cilium ([5]; 200 ng/ml octyl-Shh, 5 μM for cyclopamine, 1 μM for the others): prevented Hh-induced Smo translocation | ciliary accumulation of Smo in the absence of Hh stimulation [5, 12]: did not promote ciliary enrichment | activity against SMO-D473H, inhibition of Gli-luciferase activity [1]: partially resistant; also recorded: neither cyclopamine nor SANT-1 can fully inhibit Smo-D473H

Compound: CC1=C2C[C@H]3[C@@H](CC=C4C[C@@H](O)CC[C@@]43C)[C@@H]2CC[C@]12O[C@@H]1C[C@H](C)CN[C@H]1[C@H]2C [cyclopamine]
ciliary accumulation of Smo in the absence of Hh stimulation [5, 12]: robust translocation of Smo to the primary odium | activity against SMO-D473H, inhibition of Gli-luciferase activity [1]: partially resistant; also recorded: neither cyclopamine nor SANT-1 can fully inhibit Smo-D473H

Compound: KAAD-cyclopamine
ciliary accumulation of Smo in the absence of Hh stimulation [5, 12]: partially induced ciliary translation
